How the values were obtained:
[1] = system: human and murine cell lines; assay: Anti-glioma activity in vitro (Figure 1 b); assay type: cell-based
Procedure: The inventors seeded 5,000 or 10,000 cells, respectively, on day one, treated the next day in serum-free medium and incubated for up to 72 h. Subsequently, they measured cell viability using CellTiterBlue reagent (Promega, Madison, WI, US) according to manufacturer's instructions with a GloMax (Promega, Madison, Wl, US). The inventors normalized measurements to untreated cells. Cells were seeded the day before treatment. The inventors treated the cells in the indicated concentrations in serum-free medium for 24 h after which they changed the medium back to medium containing FCS, followed by a 7 to 21 day incubation time. The inventors used crystal violet (0.5% w/v) to stain colonies and analyzed the area coverage using the ImageJ software Plugln ColonyArea. Measurements were normalized to respective vehicle control wells.

[2] = system: LN229, LNZ308, GS-2 and GS-9 cells; assay: 4x4 synergy map assay (ZIP synergy score), all four cell lines; assay type: cell-based; conditions: combined with AZD6738 (ATRi); across all four cell lines
Procedure: (§1) The inventors seeded 5,000 or 10,000 cells, respectively, on day one, treated the next day in serum-free medium and incubated for up to 72 h. Subsequently, they measured cell viability using CellTiterBlue reagent (Promega, Madison, WI, US) according to manufacturer's instructions with a GloMax (Promega, Madison, Wl, US). The inventors normalized measurements to untreated cells.
The inventors leveraged an acute cytotoxicity assay workflow to evaluate potential interaction partners for AZD6738 which were derived from transcriptomic, proteomic and genome-wide CRISPR/Cas9 genetic dependency analyses. In a 1×1/IC50×IC50 set-up, they treated LN229 and LNZ308 cells in serum free medium for 72 h. The inventors used the original Bliss Independence Criterion to evaluate synergism potential. For this, a predicted value for additivity, derived from the product of the two monotherapy settings, was compared to the actual measurement of the combined treatment of the two drugs. […] The inventors used the R package synergyfinder with zero interaction potential (ZIP) synergy scores calculated from 4x4 concentration matrices for each tested combination and the average across the plate; see He et al. (2018); Methods for High-throughput Drug Combination Screening and Synergy Scoring. […]

[3] = system: primary cultures TUE-PC1-6; assay: Combination treatment in primary glioma cultures (Bliss independence Criterion); assay type: cell-based; conditions: plus AZD6738
Excerpt: Primary tumor tissue was obtained from fresh residual material upon resection at the Department of Neurosurgery, University Hospital Tübingen. The inventors cut the tissue in small pieces, washed it using Hanks Balanced Salt Solution (HBSS) (Gibco, Carlsbad, CA, US) and digested it by collagenase and dispase (Roche, Basel, CH). To remove any remaining erythrocytes, they used red blood cell lysis buffer (Sigma Aldrich, St. Louis, MO, US). The inventors then cultured the cells as GS cells in Neurobasal®-A medium. They first evaluated AZD6738 sensitivity of each primary culture and selected two concentrations. […] To evaluate combination treatment analyses, the inventors leveraged the Bliss independence Criterion.
as §1

[4] = system: LN229-GFP cells; assay: Zebrafish embryo xenotransplant, tumor area; assay type: in vivo, wildtype zebrafish embryos; conditions: monotherapy, 48 h of treatment; not significant as compared to the DMSO control
Procedure: The inventors used zebrafish wildtype (wt) TE embryos younger than 5 days post-fertilization (dpf). […] Labelled cells were suspended in PBS at 2*10^5 cells/µL and approx. 1 nL cell suspension was injected into the midbrain region of 24 hpf embryos. The inventors incubated the embryos at 28°C for 1 h and afterwards divided them into treatment groups. Only successfully transplanted embryos were used for further experiments. Then, the inventors applied the treatments as indicated in the respective figures and incubated that for 48 h at 35°C. For evaluation of tumor size, they imaged embryos on a Nikon Stereomicroscope (SMZ18) with the NIS Element software. The inventors assessed the tumor surface areas using Imaris (version 9.2.0).

[5] = system: LN229 and LNZ308 cells; assay: 1x1 (IC50xIC50) pre-selection screen, acute cytotoxicity assay, Bliss Independence Criterion; assay type: cell-based, human; conditions: combined with AZD6738, 1x1 (IC50xIC50), 72 h, serum free medium
Procedure: as §1
The inventors leveraged an acute cytotoxicity assay workflow to evaluate potential interaction partners for AZD6738 which were derived from transcriptomic, proteomic and genome-wide CRISPR/Cas9 genetic dependency analyses. In a 1×1/IC50×IC50 set-up, they treated LN229 and LNZ308 cells in serum free medium for 72 h. The inventors used the original Bliss Independence Criterion to evaluate synergism potential. For this, a predicted value for additivity, derived from the product of the two monotherapy settings, was compared to the actual measurement of the combined treatment of the two drugs. […] BMC Systems Biology 4: 50. Subsequently, the inventors subjected LN229, LNZ308, GS-2 and GS-9 cells to 4x4 synergy map assays again in an acute cytotoxicity assay workflow. The inventors used the R package synergyfinder with zero interaction potential (ZIP) synergy scores calculated from 4x4 concentration matrices for each tested combination and the average across the plate; see He et al. (2018); Methods for High-throughput Drug Combination Screening and Synergy Scoring. In Cancer Systems Biology: Methods and Protocols, von Stechow (ed) pp 351-398. New York, NY: Springer New York.

[6] = system: LN229 cells; assay: 4x4 synergy map assay (ZIP synergy score); assay type: cell-based, human; conditions: combined with AZD6738 (ATRi)
Procedure: as §1
(§2) The inventors leveraged an acute cytotoxicity assay workflow to evaluate potential interaction partners for AZD6738 which were derived from transcriptomic, proteomic and genome-wide CRISPR/Cas9 genetic dependency analyses. […] The inventors used the original Bliss Independence Criterion to evaluate synergism potential. For this, a predicted value for additivity, derived from the product of the two monotherapy settings, was compared to the actual measurement of the combined treatment of the two drugs. […] BMC Systems Biology 4: 50. Subsequently, the inventors subjected LN229, LNZ308, GS-2 and GS-9 cells to 4x4 synergy map assays again in an acute cytotoxicity assay workflow. […] New York, NY: Springer New York.

[7] = system: LNZ308; assay: 4x4 synergy map assay (ZIP synergy score); assay type: cell-based, human; conditions: combined with AZD6738 (ATRi)
Procedure: as §1, §2

[8] = system: GS-2 cells; assay: 4x4 synergy map assay (ZIP synergy score); assay type: cell-based; conditions: combined with AZD6738 (ATRi)
Procedure: as §1, §2

[9] = system: GS-9; assay: 4x4 synergy map assay (ZIP synergy score); assay type: cell-based; conditions: combined with AZD6738 (ATRi)
Procedure: as §1, §2

CNCc1ccc(-c2cc(-c3nc(-c4ccc(S(=O)(=O)C(C)C)cc4)cnc3N)on2)cc1 [Berzosertib, berzosertib]
anti-glioma activity in vitro [1]: significant anti-glioma activity

N.N.[Cl][Pt][Cl] [cisplatin, cis-diammine dichloridoplatin]
ZIP synergy score (synergism signature) [2]: synergism signature
combination efficacy (Bliss Independence Criterion) ([3]; all six primary cultures): synergistic read-outs
tumor area [4]: modest decrease

COc1cccc2c1C(=O)c1c(O)c3c(c(O)c1C2=O)C[C@@](O)(C(=O)CO)C[C@@H]3O[C@H]1C[C@H](N)[C@H](O)[C@H](C)O1 [doxorubicin]
Bliss synergy scores [5]: top scoring hits

COc1cc([C@@H]2c3cc4c(cc3[C@@H](O[C@@H]3O[C@@H]5CO[C@@H](C)O[C@H]5[C@H](O)[C@H]3O)[C@H]3COC(=O)[C@H]23)OCO4)cc(OC)c1O [etoposide, Etoposide]
Bliss synergy scores [5]: top scoring hits

CO[C@H]1C[C@@H]2CC[C@@H](C)[C@@](O)(O2)C(=O)C(=O)N2CCCC[C@H]2C(=O)O[C@H]([C@H](C)C[C@@H]2CC[C@@H](OCCO)[C@H](OC)C2)CC(=O)[C@H](C)/C=C(\C)[C@@H](O)[C@@H](OC)C(=O)[C@H](C)C[C@H](C)/C=C/C=C/C=C/1C [everolimus]
Bliss synergy scores [5]: top candidates

COc1ccc2c(c1)[nH]c1c(C)nccc12 [harmine]
Bliss synergy scores [5]: top scoring hits

NC(=O)NO [hydroxyurea, hydroxycarbamide]
Bliss synergy scores [5]: top scoring hits
ZIP synergy score (synergism signature) [2]: synergism signature
combination efficacy (Bliss Independence Criterion) ([3]; TUE-PC1, TUE-PC4, TUE-PC5): not
combination efficacy (Bliss Independence Criterion) ([3]; TUE-PC2, TUE-PC3 and TUE-PC6): synergistic readout

O=C(c1cc(Cc2n[nH]c(=O)c3ccccc23)ccc1F)N1CCN(C(=O)C2CC2)CC1 [olaparib, Olaparib]
Bliss synergy scores [5]: top scoring hits
ZIP synergy score (interaction with ATRi) [6]: synergistic interaction
ZIP synergy score (interaction with ATRi) [7]: do not
ZIP synergy score (interaction with ATRi) [8]: synergistic interaction
ZIP synergy score (interaction with ATRi) [9]: do not

O=c1sn(-c2cccc3ccccc23)c(=O)n1Cc1ccccc1 [tideglusib, Tideglusib]
Bliss synergy scores [5]: top scoring hits

O=C(CCCCCCC(=O)Nc1ccccc1)NO [vorinostat, suberoylanilide hydroxamic acid]
Bliss synergy scores [5]: top scoring hits
